Experimental findings from US20260285857A1, “BICYCLIC AND HETEROCYCLIC AMIDE COMPOUNDS” (priority 2024, published 2026) are described below.

Molecules are shown by their SMILES.

In one test the test system is immunoglobulin light chain protein WIL-FL T46L. Nature of the test: Differential scanning fluorimetry (thermal shift) assay. The class given is binding. The conditions noted are these: Table A; temperature shift [Tm]compound-[Tm]vehicle; recombinant WIL-FL T46L. A general note: DSF heats the sample and reads unfolding from a dye or from intrinsic fluorescence.
As for `Cc1cc(N2CC[C@](C)(c3ccccc3)C2)cn2nc(C(=O)NC34COC(CO)(C3)C4)nc12` [Compound 173], the DSF entry is “***** (>2.5° C.=*****)”. The same measure, in the same setting: with `Cc1cc(N2CC[C@](C)(c3ccccc3)C2)cn2nc(C(=O)NC3CC(N4CC5C(C4)C5C(=O)O)C3)nc12` (some centres unmarked) [Compound 354] the entry was “***** (>2.5° C.=*****)”. On to `Cc1cc(N2CC[C@](C)(c3ccccc3)C2)cn2nc(C(=O)NC34CCC(C(=O)O)(C3)C4)nc12` [Compound 207], for which the DSF result is “***** (>2.5° C.=*****)”. Still for that read-out and setting: the same measure for `Cc1cc(N2CC[C@](C)(c3ccccc3)C2)cn2nc(C(=O)NC3CC4(C3)CC(N3CC5C(C3)C5C(N)=O)C4)nc12` (some centres unmarked) [Compound 367]: “***** (>2.5° C.=*****)”; for `Cc1cc(N2CC[C@](C)(c3ccccc3)C2)cn2nc(C(=O)NC3CNCC3(F)F)nc12` (some centres unmarked) [Compound 150]: “***** (>2.5° C.=*****)”.

In the case of `Cc1cc(N2CC[C@](C)(c3ccccc3)C2)cn2nc(C(=O)NC34COC(C3)C4)nc12` [Compound 183], the DSF entry is listed as “***** (>2.5° C.=*****)”. The same measure, in the same setting: with `Cc1ncn(CC2C3COC2(c2nc4c(C)cc(N5CC[C@](C)(c6ccccc6)C5)cn4n2)C3)n1` (some centres unmarked) [Compound 83] the entry was “**** (>1.5-2.5° C.=****)”. Still for that read-out and setting: the same measure for `Cc1cc(OC[C@H](C)c2ccccc2)cn2nc(C(=O)N3CCC(Cc4ccc(C(=O)O)nc4)CC3)nc12` [Compound 304]: “***** (>2.5° C.=*****)”; for `Cc1cc(N2CC[C@](C)(c3ccccc3)C2)cn2nc(C(=O)N3CC[C@@]4(CCN(c5cccc(C(=O)O)n5)C4)C3)nc12` [Compound 267]: “***** (>2.5° C.=*****)”; for `Cc1cc(N2CC[C@](C)(c3ccccc3)C2)cn2nc(C(=O)N3CC4(CC(Oc5cccc(C(=O)O)n5)C4)C3)nc12` [Compound 221]: “***** (>2.5° C.=*****)”. Same read-out and setting: with `Cc1cnc(C2C3COC2(c2nc4c(C)cc(N5CC[C@](C)(c6ccccc6)C5)cn4n2)C3)[nH]1` (some centres unmarked) [Compound 70] the entry was “***** (>2.5° C.=*****)”; with `Cc1cc(N2CC[C@](C)(c3ccccc3)C2)cn2nc(C(N)=O)nc12` [Compound 137], “***** (>2.5° C.=*****)”. Consider `CCOC(=O)C1C2CN(C3CC4(CC(NC(=O)c5nc6c(C)cc(N7CC[C@](C)(c8ccccc8)C7)cn6n5)C4)C3)CC21` (some centres unmarked) [Compound 378], for which the DSF entry is “***** (>2.5° C.=*****)”.

For `Cc1cc(N2CC[C@](C)(c3ccccc3)C2)cn2nc(C(=O)NC3CCN(c4cncnc4)C3)nc12` (some centres unmarked) [Compound 190], the DSF result was “***** (>2.5° C.=*****)”. With `Cc1cc(N2CC[C@](C)(c3ccccc3)C2)cn2nc(C(=O)NC3CC(N4C[C@@H](O)[C@@H](O)C4)C3)nc12` (some centres unmarked) [Compound 361], the DSF result was “***** (>2.5° C.=*****)”. Still for that read-out and setting: with `Cc1cc(N2CC[C@](C)(c3ccccc3)C2)cn2nc(C34CC(CN)(CO3)C4C(N)=O)nc12` (some centres unmarked) [Compound 44] the entry was “***** (>2.5° C.=*****)”; with `Cc1cc(OC[C@H](C)c2ccccc2)cn2nc(C(=O)NC3CCN(c4ccnc(C(=O)O)c4)CC3)nc12` [Compound 320], “***** (>2.5° C.=*****)”; with `COCC(C)(O)CNC(=O)c1nc2c(C)cc(N3CC[C@](C)(c4ccccc4)C3)cn2n1` (some centres unmarked) [Compound 138], “***** (>2.5° C.=*****)”. Still for that read-out and setting: with `Cc1ncn(CC23CC(C(N)=O)(C2)C(c2nc4c(C)cc(N5CC[C@](C)(c6ccccc6)C5)cn4n2)O3)n1` (some centres unmarked) [Compound 95] the entry was “***** (>2.5° C.=*****)”; with `Cc1cc(N2CC[C@](C)(c3ccccc3)C2)cn2nc(C34CC(CO3)C4c3noc(=O)[nH]3)nc12` (stereo partly drawn) [Compound 13, 3-[1-[8-methyl-6-[(3R)-3-methyl-3-phenyl-pyrrolidin-1-yl]-[1,2,4]triazolo[1,5-a]pyridin-2-yl]-2-oxabicyclo[2.1.1]hexan-5-yl]-4H-1,2,4-oxadiazol-5-one], “***** (>2.5° C.=*****)”; with `C[C@]1(c2ccccc2)CCN(c2cc(CO)c3nc(C(=O)N4CCC5(CCN(c6cccc(C(=O)O)n6)C5)C4)nn3c2)C1` (some centres unmarked) [Compound 343], “***** (>2.5° C.=*****)”. Same read-out and setting: the same measure for `Cc1cc(N2CC[C@](C)(c3ccccc3)C2)cn2nc(C34CC(N)(CO3)C4CO)nc12` (stereo partly drawn) [Compound 4, (4-amino-1-(8-methyl-6-((R)-3-methyl-3-phenylpyrrolidin-1-yl)-[1,2,4]triazolo[1,5-a]pyridin-2-yl)-2-oxabicyclo[2.1.1]hexan-5-yl)methanol]: “***** (>2.5° C.=*****)”; for `Cc1cc(N2CC[C@](C)(c3ccccc3)C2)cn2nc(C(=O)NC3CCN(c4ccnc(C(=O)O)c4)C3)nc12` (some centres unmarked) [Compound 277]: “***** (>2.5° C.=*****)”. `Cc1cc(N2CC[C@](C)(c3ccccc3)C2)cn2nc(C(=O)N[C@H]3COC[C@@H]3F)nc12` [Compound 121]: the DSF entry is reported as “***** (>2.5° C.=*****)”. Same read-out and setting: with `Cc1cc(OC(C)c2ccc(F)c(Cl)c2)cn2nc(C(=O)N3CC[C@@]4(CCC(c5cccc(C(=O)O)n5)C4)C3)nc12` (some centres unmarked) [Compound 412] the entry was “* (0-0.5° C.=*)”; with `Cc1cc(N2CCC(C)(c3ccccc3F)C2)cn2nc(C(=O)N3CC[C@@]4(CCN(c5cccc(C(=O)O)n5)C4)C3)nc12` (some centres unmarked) [Compound 426], “***** (>2.5° C.=*****)”. As to `Cc1cc(N2CC[C@](C)(c3ccccc3)C2)cn2nc(C(=O)N3CC4CN(c5cccc(C(=O)O)n5)CC4(C(N)=O)C3)nc12` (some centres unmarked) [Compound 255], the DSF result was “***** (>2.5° C.=*****)”. Still for that read-out and setting: the same measure for `Cc1cc(N2CC[C@](C)(c3ccccc3)C2)cn2nc(C(=O)NC34COC(C(N)=O)(C3)C4)nc12` [Compound 212]: “***** (>2.5° C.=*****)”. Same read-out and setting: with `Cc1cc(N2CC[C@](C)(c3ccccc3)C2)cn2nc(C34CC(N(C)C)(CO3)C4CO)nc12` (some centres unmarked) [Compound 50] the entry was “***** (>2.5° C.=*****)”; with `COC(=O)C1CCN(C2CCC23CC(NC(=O)c2nc4c(C)cc(N5CC[C@](C)(c6ccccc6)C5)cn4n2)C3)CC1` (some centres unmarked) [Compound 373], “***** (>2.5° C.=*****)”; with `Cc1cc(N2CC3CC2(c2ccccc2)C3)cn2nc(C(=O)N3C[C@@H]4CN(c5cccc(C(=O)O)n5)C[C@@H]4C3)nc12` [Compound 297], “* (0-0.5° C.=*)”. Same read-out and setting: with `Cc1cc(N2CCC(C)(C#N)C2)cn2nc(C(=O)N3CC4CN(c5cccc(C(=O)O)n5)CC4C3)nc12` (centres unmarked) [Compound 430] the entry was “* (0-0.5° C.=*)”.

The same test, now with this note: Table B; temperature shift [Tm]compound-[Tm]vehicle; recombinant WIL-FL T46L.
Take `Cc1cc(N2CC[C@](C)(c3ccccc3)C2)cn2nc(C34CC(CO3)C4N3CC4(CNC4)NC3=O)nc12` (some centres unmarked) [Compound 515]: the DSF result is reported as “***** (>2.5° C.=*****)”. On the same count and under the same terms, the same measure for `Cc1cc(N2CC[C@](C)(c3ccccc3)C2)cn2nc(C34CC(CO)(CO3)C4c3nc(NS(=O)(=O)CC(C)(C)C(=O)O)n[nH]3)nc12` (some centres unmarked) [Compound 574]: “***** (>2.5° C.=*****)”. On to `Cc1cc(N2CC[C@](C)(c3ccccc3)C2)cn2nc(C(=O)NC3CCC34CC(OCC(=O)O)C4)nc12` (stereo partly drawn) [Compound 677, 2-[7-[[8-methyl-6-[(3R)-3-methyl-3-phenyl-pyrrolidin-1-yl]-[1,2,4]triazolo[1,5-a]pyridine-2-carbonyl]amino]spiro[3.3]heptan-2-yl]oxyacetic acid], for which the DSF result was “***** (>2.5° C.=*****)”. Still for that read-out and setting: with `CCS(=O)(=O)Nc1nc(C2C3(CO)COC2(c2nc4c(C)cc(N5CC[C@](C)(c6ccccc6)C5)cn4n2)C3)n[nH]1` (stereo partly drawn) [Compound 573, N-[3-[4-(hydroxymethyl)-1-[8-methyl-6-[(3R)-3-methyl-3-phenyl-pyrrolidin-1-yl]-[1,2,4]triazolo[1,5-a]pyridin-2-yl]-2-oxabicyclo[2.1.1]hexan-5-yl]-1H-1,2,4-triazol-5-yl]ethanesulfonamide] the entry was “***** (>2.5° C.=*****)”; with `CNC(=O)c1nc2c(Cc3nc(CC(=O)O)n[nH]3)cc(N3CC[C@](C)(c4ccccc4)C3)cn2n1` [Compound 759, 2-[5-[[2-(methylcarbamoyl)-6-[(3R)-3-methyl-3-phenyl-pyrrolidin-1-yl]-[1,2,4]triazolo[1,5-a]pyridin-8-yl]methyl]-1H-1,2,4-triazol-3-yl]acetic acid], “**** (>1.5-2.5° C.=****)”. On to `Cc1nc(CNC(=O)C23COC(c4nc5c(C)cc(N6CC[C@](C)(c7ccccc7)C6)cn5n4)(C2)C3)n[nH]1` [Compound 448], for which the DSF entry is reported as “***** (>2.5° C.=*****)”. The same measure, in the same setting: the same measure for `Cc1cc(N2CC[C@](C)(c3ccccc3)C2)cn2nc(C34CC(CN)(CO3)C4CO)nc12` (stereo partly drawn) [Compound 582, (4-(aminomethyl)-1-(8-methyl-6-((R)-3-methyl-3-phenylpyrrolidin-1-yl)-[1,2,4]triazolo[1,5-a]pyridin-2-yl)-2-oxabicyclo[2.1.1]hexan-5-yl)methanol]: “***** (>2.5° C.=*****)”. On the same count and under the same terms, with `Cc1cc(N2CC[C@](C)(c3ccccc3)C2)cn2nc(C(=O)NC3COCC4(C3)CN(c3cccc(C(=O)O)n3)C4)nc12` (stereo partly drawn) [Compound 669, 6-(8-(8-methyl-6-((R)-3-methyl-3-phenylpyrrolidin-1-yl)-[1,2,4]triazolo[1,5-a]pyridine-2-carboxamido)-6-oxa-2-azaspiro[3.5]nonan-2-yl)picolinic acid] the entry was “***** (>2.5° C.=*****)”; with `Cc1cc(N2CC[C@](C)(c3ccccc3)C2)cn2nc(C34CC(C(=O)NC(C)(C)C(=O)O)(CO3)C4)nc12` [Compound 440, (R)-2-methyl-2-(1-(8-methyl-6-(3-methyl-3-phenylpyrrolidin-1-yl)-[1,2,4]triazolo[1,5-a]pyridin-2-yl)-2-oxabicyclo[2.1.1]hexane-4-carboxamido)propanoic acid], “***** (>2.5° C.=*****)”; with `C[C@]1(c2ccccc2)CCN(c2cc(CO)c3nc(C45CC(CO4)C5c4ncn[nH]4)nn3c2)C1` (some centres unmarked) [Compound 479], “***** (>2.5° C.=*****)”.

For `COc1cc(N2C[C@H]3CN(C(=O)c4nc5c(C)cc(N6CC[C@](C)(c7ccccc7)C6)cn5n4)C[C@H]3C2)cc(C(=O)O)n1` [Compound 630], the DSF entry is recorded as “***** (>2.5° C.=*****)”. Still for that read-out and setting: the same measure for `Cc1ccc(N2CC[C@@]3(CCN(C(=O)c4nc5c(C)cc(N6CC[C@](C)(c7ccccc7)C6)cn5n4)C3)C2)nc1C(=O)O` [Compound 710]: “***** (>2.5° C.=*****)”.
